Measured values from patent US20140051575A1 (priority 2011, published 2014).

Key:
Phytophthora infestans = assay type: in vivo; conditions: tomato plants, preventive spray, 500 ppm of active ingredient, evaluated 7 days after inoculation; 0% = untreated control, 100% = no disease
[1] = Measurement of logP values by HPLC on reversed phase columns (EEC directive 79/831 Annex V.A8); assay type: physicochemical; conditions: pH 2.7, 0.1% formic acid in water / acetonitrile gradient, calibration with alkan-2-ones
Description: Measurement of logP values was performed according EEC directive 79/831 Annex V.A8 by HPLC (High Performance Liquid Chromatography) on reversed phase columns with the following methods:
Measurement of LC-MS was done at pH 2.7 with 0.1% formic acid in water and with acetonitrile (contains 0.1% formic acid) as eluent with a linear gradient from 10% acetonitrile to 95% acetonitrile.
Calibration was done with not branched alkan2-ones (with 3 to 16 carbon atoms) with known logP-values (measurement of logP values using retention times with linear interpolation between successive alkanones). lambda-maX-values were determined using UV-spectra from 200 nm to 400 nm and the peak values of the chromatographic signals.

Structure (SMILES) | Eff. % (Phytophthora infestans) | Log P [1]
Cc1nnnn1C(=NOCc1cccc(NC(=O)CSC2CCCC2)n1)c1ccccc1 [Example 80] | 100% | 3.92
CC(C)CCOC(C)C(=O)Nc1cccc(CON=C(c2ccccc2)c2nnnn2C)n1 (stereo not shown) [Example 44] | 100% | 4.41
Cc1nnnn1C(=NOCc1csc(NC(=O)CSC2CCCC2)n1)c1ccccc1 [Example 90] | 95% | 3.65
Cc1nnnn1C(=NOCc1csc(NC(=O)CCSCc2ccc(F)cc2)n1)c1ccccc1 [Example 115] | 80% | 3.78
Cc1nnnn1C(=NOCc1csc(NC(=O)COCCC2CCCC2)n1)c1ccccc1 [Example 41] | 98% | 4.34
CC(COCc1ccccc1)C(=O)Nc1cccc(CON=C(c2ccccc2)c2nnnn2C)n1 (stereo not shown) [Example 97] | 100% | 3.85
Cn1nnnc1C(=NOCc1csc(NC(=O)C(C)(C)CSC2CCCCC2)n1)c1ccccc1 [Example 102] | 100% | 4.77
CC(OCC(=O)Nc1nc(CON=C(c2ccccc2)c2nnnn2C)cs1)c1ccccc1 (stereo not shown) [Example 105] | 95% | 3.7
CC(OCc1ccccc1)C(=O)Nc1cccc(CON=C(c2ccccc2)c2nnnn2C)n1 (stereo not shown) [Example 47] |  | 3.92
Cn1nnnc1C(=NOCc1cccc(NC(=O)CCSCc2ccc(F)cc2)n1)c1ccccc1 [Example 100] | 95% | 3.87
Cc1nnnn1C(=NOCc1cccc(NC(=O)COCC2CCCC2)n1)c1ccccc1 [Example 26] | 97% | 4.34
Cn1nnnc1C(=NOCc1csc(NC(=O)CCSCc2ccccc2)n1)c1ccccc1 [Example 108] | 90% | 3.69
Cc1nnnn1C(=NOCc1csc(NC(=O)C(C)OCC2CCCCC2)n1)c1ccccc1 (stereo not shown) [Example 38] | 100% | 4.74
CC(OCC1CCCCO1)C(=O)Nc1nc(CON=C(c2ccccc2)c2nnnn2C)cs1 (stereo not shown) [Example 59] | 100% | 3.62
C=CCSC(C)C(=O)Nc1nc(CON=C(c2ccccc2)c2nnnn2C)cs1 (stereo not shown) [Example 75] | 93% | 3.31
Cn1nnnc1C(=NOCc1cccc(NC(=O)COCC2CCCCO2)n1)c1ccccc1 (stereo not shown) [Example 53] |  | 3.33
Cc1nnnn1C(=NOCc1cccc(NC(=O)C(C)OCC2CCCCC2)n1)c1ccccc1 (stereo not shown) [Example 28] | 100% | 5.13
Cc1nnnn1C(=NOCc1cccc(NC(=O)COCCC2CCCC2)n1)c1ccccc1 [Example 31] | 97% | 4.73
Cn1nnnc1C(=NOCc1csc(NC(=O)CCOCc2ccccc2)n1)c1ccccc1 [Example 106] | 93% | 3.33
Cc1nnnn1C(=NOCc1cccc(NC(=O)C(C)(C)CSC2CCCCC2)n1)c1ccccc1 [Example 109] | 95% | 5.08
Cn1nnnc1C(=NOCc1csc(NC(=O)COCCC2CCCC2)n1)c1ccccc1 [Example 21] | 95% | 4.29
Cc1nnnn1C(=NOCc1csc(NC(=O)CCOCc2ccccc2)n1)c1ccccc1 [Example 114] | 93% | 3.37

Structure (SMILES) | Eff. % (Phytophthora infestans) | Log P [1]
Cn1nnnc1C(=NOCc1csc(NC(=O)CSC2CCCC2)n1)c1ccccc1 [Example 77] | 95% | 3.65
CC(SC1CCCC1)C(=O)Nc1nc(CON=C(c2ccccc2)c2nnnn2C)cs1 (stereo not shown) [Example 73] | 95% | 3.99
Cn1nnnc1C(=NOCc1csc(NC(=O)CSC2CCCCC2)n1)c1ccccc1 [Example 76] | 100% | 3.92
CC(OCC1CCCCC1)C(=O)Nc1nc(CON=C(c2ccccc2)c2nnnn2C)cs1 (stereo not shown) [Example 18] | 100% | 4.64
Cc1nnnn1C(=NOCc1csc(NC(=O)COCC2CCCC2)n1)c1ccccc1 [Example 36] | 97% | 3.94
Cc1nnnn1C(=NOCc1cccc(NC(=O)C(C)OCC2CCCC2)n1)c1ccccc1 (stereo not shown) [Example 29] | 100% | 4.69
Cn1nnnc1C(=NOCc1cccc(NC(=O)COCC2CC2)n1)c1ccccc1 [Example 1] |  | 3.29
Cn1nnnc1C(=NOCc1csc(NC(=O)COCCC2CCCCC2)n1)c1ccccc1 [Example 20] | 100% | 4.63
Cc1nnnn1C(=NOCc1cccc(NC(=O)COCC2CC2)n1)c1ccccc1 [Example 23] | 95% | 3.33
CC(OCC1CCCCO1)C(=O)Nc1cccc(CON=C(c2ccccc2)c2nnnn2C)n1 (stereo not shown) [Example 55] | 100% | 3.67
CC(OCC(=O)Nc1cccc(CON=C(c2ccccc2)c2nnnn2C)n1)c1ccccc1 (stereo not shown) [Example 95] | 100% | 3.94
Cc1nnnn1C(=NOCc1csc(NC(=O)COCCC(C)C)n1)c1ccccc1 [Example 46] | 100% | 3.87
Cc1nnnn1C(=NOCc1csc(NC(=O)CSCCC(C)C)n1)c1ccccc1 [Example 81] | 95% | 3.99
CC(OCC1CC1)C(=O)Nc1ccc(Br)c(CON=C(c2ccccc2)c2nnnn2C)n1 (stereo not shown) [Example 3] | 100% | 4.23
Cn1nnnc1C(=NOCc1cccc(NC(=O)CSCc2ccccc2)n1)c1ccccc1 [Example 64] |  | 3.78
Cc1nnnn1C(=NOCc1cccc(NC(=O)C(C)OCc2ccccc2)n1)c1ccccc1 (stereo not shown) [Example 51] | 95% | 4.11
Cc1nnnn1C(=NOCc1csc(NC(=O)CSCc2ccccc2)n1)c1ccccc1 [Example 86] | 93% | 3.57
C=CCSCC(=O)Nc1nc(CON=C(c2ccccc2)n2nnnc2C)cs1 [Example 83] | 88% | 3.15
Cc1nnnn1C(=NOCc1cccc(NC(=O)COCC2CCCCC2)n1)c1ccccc1 [Example 27] | 95% | 4.76
Cc1nnnn1C(=NOCc1cccc(NC(=O)C(C)OCC2CCC2)n1)c1ccccc1 (stereo not shown) [Example 32] | 100% | 4.26
Cn1nnnc1C(=NOCc1cccc(NC(=O)OCC(C)(C)OCc2ccccc2)n1)c1ccccc1 [Example 68] | 100% | 4.34
Cc1nnnn1C(=NOCc1cccc(NC(=O)CCOCc2ccccc2)n1)c1ccccc1 [Example 110] | 85% | 3.55

Structure (SMILES) | Eff. % (Phytophthora infestans) | Log P [1]
Cc1nnnn1C(=NOCc1csc(NC(=O)CSC2CCCCC2)n1)c1ccccc1 [Example 89] | 100% | 3.96
CC(OCC1CCCC1)C(=O)Nc1cccc(CON=C(c2ccccc2)c2nnnn2C)n1 (stereo not shown) [Example 8] | 100% | 4.59
Cc1ccccc1CSCC(=O)Nc1cccc(CON=C(c2ccccc2)n2nnnc2C)n1 [Example 78] | 100% | 4.06
Cn1nnnc1C(=NOCc1csc(NC(=O)CCSCc2ccc(F)cc2)n1)c1ccccc1 [Example 107] | 95% | 3.73
Cc1nnnn1C(=NOCc1csc(NC(=O)C(C)OCC2CCCC2)n1)c1ccccc1 (stereo not shown) [Example 39] | 100% | 4.31
Cc1nnnn1C(=NOCc1cccc(NC(=O)CCSCc2ccc(F)cc2)n1)c1ccccc1 [Example 111] | 90% | 3.92
Cc1nnnn1C(=NOCc1csc(NC(=O)COCCC2CCCCC2)n1)c1ccccc1 [Example 40] | 95% | 4.71
Cn1nnnc1C(=NOCc1cccc(NC(=O)C2CC2c2ncc(C(F)(F)F)cc2Cl)n1)c1ccccc1 (stereo not shown) [Example 92] | 98% | 4.54
C=CCSC(C)C(=O)Nc1cccc(CON=C(c2ccccc2)c2nnnn2C)n1 (stereo not shown) [Example 66] | 95% | 
CC(OCC1CCCCC1)C(=O)Nc1cccc(CON=C(c2ccccc2)c2nnnn2C)n1 (stereo not shown) [Example 7] | 100% | 5.03
Cn1nnnc1C(=NOCc1csc(NC(=O)C2CC2c2ncc(C(F)(F)F)cc2Cl)n1)c1ccccc1 (stereo not shown) [Example 93] | 98% | 4.37
Cc1nnnn1C(=NOCc1csc(NC(=O)CSCc2cccs2)n1)c1ccccc1 [Example 84] | 98% | 3.51
Cc1nnnn1C(=NOCc1csc(NC(=O)CCSCc2ccccc2)n1)c1ccccc1 [Example 116] | 80% | 3.73
Cn1nnnc1C(=NOCc1cccc(NC(=O)C(C)(C)CSC2CCCCC2)n1)c1ccccc1 [Example 94] | 100% | 4.98
Cn1nnnc1C(=NOCc1cccc(NC(=O)COCCC2CCCC2)n1)c1ccccc1 [Example 11] | 95% | 4.61
Cc1nnnn1C(=NOCc1cccc(NC(=O)COCCC2CCCCC2)n1)c1ccccc1 [Example 30] | 95% | 5.08
C=CCSC(C)C(=O)Nc1nc(CON=C(c2ccccc2)n2nnnc2C)cs1 (stereo not shown) [Example 85] | 98% | 3.35
Cn1nnnc1C(=NOCc1cccc(NC(=O)CCOCc2ccccc2)n1)c1ccccc1 [Example 99] | 90% | 3.48
Cc1nnnn1C(=NOCc1cccc(NC(=O)COCC2CCCO2)n1)c1ccccc1 (stereo not shown) [Example 61] |  | 2.98
CC(C)CCOCC(=O)Nc1cccc(CON=C(c2ccccc2)c2nnnn2C)n1 [Example 43] |  | 4.09
